Patent publication US6737383B1, “Herbicidal oxadiazolidines” (priority 1999, dated 2004)

How the values were obtained:
blackgrass = assay: Test B pre/postemergence blackgrass; assay type: in vivo, Alopecurus myosuroides
In short: (§1)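 Response is a visual 0-to-10 score relative to untreated plants, where 0 means no effect and 10 means complete control, taken twelve to sixteen days after application. Treatments went onto soil at planting and onto foliage of 1- to 4-leaf plants, using a surfactant-containing non-phytotoxic solvent.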

morningglory = assay: Test B pre/postemergence morningglory; assay type: in vivo, Ipomoea hederacea
In short: as §1

crabgrass = assay: Test B pre/postemergence crabgrass; assay type: in vivo, Digitaria sanguinalis
In short: as §1

bamyardgrass = assay: Test B flood test barnyardgrass; assay type: in vivo, Echinochloa crus-galli; conditions: for Plant response rating, Barnyardgrass (0 to 10 scale, 0 is no effect, 10 is complete control) / Barnyardgrass plant response rating (0 to 10 scale, 0 is no effect, 10 is complete control): visual evaluation after twelve to sixteen days; for Barnyardgrass plant response rating (0 to 10 scale, 0 is no effect, 10 is complete control): under heading Pre-emergence
In short: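 Plants were grown to the 2-leaf stage before treatment with test chemical, then held in a greenhouse for twelve to sixteen days. Injury was visually rated against untreated controls on a 0–10 scale, where 0 is no effect and 10 is complete control.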

[1] = Postemergence, Rate 250 g/ha, scale 0 to 10
[2] = Postemergence, Rate 500 g/ha, scale of 0 to 10 where 0 is no effect and 10 is complete control
[3] = Preemergence, Rate 62 g/ha, scale 0 to 10 (0 no effect, 10 complete control)
[4] = Preemergence, Rate 125 g/ha, scale of 0 to 10 where 0 is no effect and 10 is complete control
[5] = Preemergence, Rate 250 g/ha, scale 0 to 10, 0 is no effect, 10 is complete control
[6] = Preemergence, Rate 500 g/ha, scale 0 to 10, 0 is no effect, 10 is complete control
[7] = Rate 62 g/ha, Postemergence, scale of 0 to 10 where 0 is no effect and 10 is complete control
[8] = Rate 125 g/ha, Postemergence, scale 0 to 10, 0 is no effect, 10 is complete control
[9] = Preemergence, Rate 62 g/ha, scale of 0 to 10 where 0 is no effect and 10 is complete control
[10] = Rate 62 g/ha, Postemergence, scale 0 to 10 (0 no effect, 10 complete control)
[11] = Rate 62 g/ha, flood test species, Pre-emergence
[12] = Rate 125 g/ha, flood test species
[13] = Rate 250 g/ha, Pre-emergence (flood test species), scale 0 to 10, 0 is no effect, 10 is complete control
[14] = Rate 500 g/ha, Pre-emergence, flood test species, scale 0 to 10 (0 no effect, 10 complete control)
[15] = Postemergence, Rate 31 g/ha, visual rating, scale 0 to 10 (0 no effect, 10 complete control)
[16] = Preemergence, Rate 31 g/ha, visual rating, scale 0 to 10 (0 no effect, 10 complete control)

SMILES	Blackgrass plant response rating (blackgrass; [1])	Blackgrass plant response rating (blackgrass; [2])	Plant response rating, Blackgrass (blackgrass; [4])	Blackgrass plant response rating (blackgrass; [5])	Blackgrass plant response rating (blackgrass; [6])	Blackgrass plant response rating (blackgrass; [8])	Morningglory plant response rating (morningglory; [1])	Plant response rating, Morningglory (morningglory; [4])	Morningglory plant response rating (morningglory; [5])	Morningglory plant response rating (morningglory; [6])	Morningglory plant response rating (morningglory; [8])	Crabgrass plant response rating (crabgrass; [1])	Crabgrass plant response rating (crabgrass; [2])	Plant response rating, Crabgrass (crabgrass; [4])	Crabgrass plant response rating (crabgrass; [5])	Crabgrass plant response rating (crabgrass; [6])	Crabgrass plant response rating (crabgrass; [8])	Plant response rating, Blackgrass (blackgrass; [9])	Blackgrass plant response rating (blackgrass; [10])	Plant response rating, Morningglory (morningglory; [9])	further results
C=CC[Si](C)(C)Cn1c(=O)on(C(=O)N(c2ccc(F)cc2)C(C)C)c1=O [Compound 426]	8	8	6	9	9	6	9	0	0	6	7	9	9	9	10	10	6	–	–	–	Plant response rating, Blackgrass (blackgrass; [3]): 4; Blackgrass plant response rating (blackgrass; [7]): 3; Morningglory plant response rating (morningglory; [2]): 9; Plant response rating, Morningglory (morningglory; [3]): 0; Plant response rating, Crabgrass (crabgrass; [3]): 8; Crabgrass plant response rating (crabgrass; [7]): 1; Barnyardgrass plant response rating (bamyardgrass; Postemergence block (flood test species), Rate 250 g/ha, scale 0 to 10): 0; Barnyardgrass plant response rating (bamyardgrass; Postemergence section (flood test species), Rate 500 g/ha, scale of 0 to 10 where 0 is no effect and 10 is complete control): 0; Barnyardgrass plant response rating (bamyardgrass; Rate 62 g/ha, Postemergence (flood test species), scale of 0 to 10 where 0 is no effect and 10 is complete control): 0; Barnyardgrass plant response rating (bamyardgrass; Rate 125 g/ha, Postemergence section (flood test species), scale 0 to 10, 0 is no effect, 10 is complete control): 0
CC(C)N(C(=O)n1oc(=O)n(CNC(=O)c2ccccc2)c1=O)c1ccc(F)cc1 [Compound 445]	0	0	0	0	1	0	4	0	0	0	4	3	7	2	3	9	1	0	0	0	Morningglory plant response rating (morningglory; [2]): 8; Morningglory plant response rating (morningglory; [10]): 3; Plant response rating, Crabgrass (crabgrass; [9]): 0; Crabgrass plant response rating (crabgrass; [10]): 0; Plant response rating, Barnyardgrass (0 to 10 scale, 0 is no effect, 10 is complete control) (bamyardgrass; [11]): 0; Barnyardgrass plant response rating (0 to 10 scale, 0 is no effect, 10 is complete control) (bamyardgrass; [12]): 0; Barnyardgrass plant response rating (bamyardgrass; [13]): 0; Barnyardgrass plant response rating (bamyardgrass; [14]): 0
COCC(OC)n1c(=O)on(C(=O)N(c2ccc(F)cc2)C(C)C)c1=O (stereo not shown) [Compound 446]	8	9	7	8	10	8	3	0	0	9	2	9	9	8	9	9	9	5	4	0	Morningglory plant response rating (morningglory; [2]): 3; Morningglory plant response rating (morningglory; [10]): 2; Plant response rating, Crabgrass (crabgrass; [9]): 8; Crabgrass plant response rating (crabgrass; [10]): 5; Plant response rating, Barnyardgrass (0 to 10 scale, 0 is no effect, 10 is complete control) (bamyardgrass; [11]): 0; Barnyardgrass plant response rating (0 to 10 scale, 0 is no effect, 10 is complete control) (bamyardgrass; [12]): 0; Barnyardgrass plant response rating (bamyardgrass; [13]): 0; Barnyardgrass plant response rating (bamyardgrass; [14]): 0
CC(C)N(C(=O)n1oc(=O)n(CC2=NOCCC2)c1=O)c1ccc(Cl)cc1 [Compound 450]	2	–	2	4	–	0	1	0	0	–	0	4	–	7	8	–	2	0	0	0	Blackgrass plant response rating (blackgrass; [15]): 0; Blackgrass plant response rating (blackgrass; [16]): 0; Morningglory plant response rating (morningglory; [15]): 0; Morningglory plant response rating (morningglory; [10]): 0; Crabgrass plant response rating (crabgrass; [15]): 0; Crabgrass plant response rating (crabgrass; [16]): 0; Plant response rating, Crabgrass (crabgrass; [9]): 2; Crabgrass plant response rating (crabgrass; [10]): 0; Barnyardgrass plant response rating (bamyardgrass; Rate 31 g/ha, Pre-emergence section (flood test species), scale 0 to 10): 0; Plant response rating, Barnyardgrass (0 to 10 scale, 0 is no effect, 10 is complete control) (bamyardgrass; [11]): 0; Barnyardgrass plant response rating (0 to 10 scale, 0 is no effect, 10 is complete control) (bamyardgrass; [12]): 0; Barnyardgrass plant response rating (bamyardgrass; [13]): 0
CC(C)N(C(=O)n1oc(=O)n(CCC[Si](C)(C)C)c1=O)c1ccc(F)cc1 [Compound 461]	0	3	0	0	0	0	7	0	0	0	7	0	2	0	0	3	0	0	0	0	Morningglory plant response rating (morningglory; [10]): 3; Plant response rating, Crabgrass (crabgrass; [9]): 0; Crabgrass plant response rating (crabgrass; [10]): 0; Plant response rating, Barnyardgrass (0 to 10 scale, 0 is no effect, 10 is complete control) (bamyardgrass; [11]): 0; Barnyardgrass plant response rating (0 to 10 scale, 0 is no effect, 10 is complete control) (bamyardgrass; [12]): 0; Barnyardgrass plant response rating (bamyardgrass; [13]): 0; Barnyardgrass plant response rating (bamyardgrass; [14]): 0
CC(C)N(C(=O)n1oc(=O)n(CCCl)c1=O)c1ccc(Cl)cc1 [Compound 474]	8	8	3	4	9	–	1	0	0	0	1	6	9	9	9	10	5	3	7	0	Morningglory plant response rating (morningglory; [10]): 1; Plant response rating, Crabgrass (crabgrass; [9]): 6; Crabgrass plant response rating (crabgrass; [10]): 2; Plant response rating, Barnyardgrass (0 to 10 scale, 0 is no effect, 10 is complete control) (bamyardgrass; [11]): 0; Barnyardgrass plant response rating (0 to 10 scale, 0 is no effect, 10 is complete control) (bamyardgrass; [12]): 0; Barnyardgrass plant response rating (bamyardgrass; [13]): 0; Barnyardgrass plant response rating (bamyardgrass; [14]): 0
CC(C)N(C(=O)n1oc(=O)n(C(C)C(=O)N(C)C)c1=O)c1ccc(Cl)cc1 (stereo not shown) [Compound 480]	3	8	5	8	9	3	7	0	0	0	4	7	8	8	8	10	6	3	0	0	Morningglory plant response rating (morningglory; [10]): 2; Plant response rating, Crabgrass (crabgrass; [9]): 7; Crabgrass plant response rating (crabgrass; [10]): 2; Plant response rating, Barnyardgrass (0 to 10 scale, 0 is no effect, 10 is complete control) (bamyardgrass; [11]): 0; Barnyardgrass plant response rating (0 to 10 scale, 0 is no effect, 10 is complete control) (bamyardgrass; [12]): 0; Barnyardgrass plant response rating (bamyardgrass; [13]): 0; Barnyardgrass plant response rating (bamyardgrass; [14]): 0
